Data as given in publication PMC10415494, “Ga(III) pyridinecarboxylate complexes: potential analogues of the second generation of therapeutic Ga(III) complexes?” (Journal of Biological Inorganic Chemistry, 2023).

What was measured:
[1] = tested on: PaTu 8902 (human pancreatic adenocarcinoma); assay: MTS antiproliferative assay; details: Homo sapiens, PaTu 8902, 72 h, read-out: Cytotoxic activity IC50 PaTu 8902
[2] = tested on: MDA-MB-231 (human mammary gland adenocarcinoma); assay: MTS antiproliferative assay; details: Homo sapiens, MDA-MB-231, 72 h, read-out: Cytotoxic activity IC50 MDA-MB-231
[3] = tested on: HCT116 (human colorectal carcinoma); assay: MTS antiproliferative assay; details: Homo sapiens, HCT-116, 72 h, read-out: Cytotoxic activity IC50 HCT116
[4] = tested on: HeLa (human cervical adenocarcinoma); assay: MTS antiproliferative assay; details: Homo sapiens, HeLa, 72 h, read-out: Cytotoxic activity IC50 HeLa
any model microorganism = assay: Antimicrobial activity, macrodilution method, all model microorganisms together; type: cell-based; details: free ligands, range 0.5–2.0 mM
Procedure: Cultures of bacteria (in Mueller–Hinton broth, MHB) and yeasts (in Sabouraud’s growth medium, SB) were incubated under shaking (250 rpm) at 37 °C. The growth of bacteria and yeasts was evaluated by measuring the absorbance of the growing cultures (A590) until the cultures reached the stationary growth phase. The effects of gallium(III) complexes on the growth of filamentous fungi Rhizopus oryzae (R. oryzae) CCM F-8284, Alternaria alternata (A. alternata) CCM F-128 and Microsporum gypseum (M. gypseum) CCM F-8342 (Czech Collection of Microorganisms) were observed by macrodilution method on solidified potato-dextrose growth medium (PDA). During culturing, the diameters of growing fungal colonies were measured at regular intervals. Briefly, the antimicrobial activity (bacteria and yeasts) gallium(III) complexes/ ligands were added to the microbial culture at the beginning of the cultivation-to the lag phase. Pure gallium(III) complexes/ligands were dissolved in DMSO. The final concentration of DMSO never exceeded 1.0 vol. % neither in control nor treated samples. Concentration of gallium(III) complexes used in experimental work for evaluation of antimicrobial activity was used in the range of 0.05–2 mM, for the free ligands in the range of 0.5–2.0 mM in all experiments. […] The IC50 values were evaluated from toxicity curves. All the obtained results of antimicrobial activity were compared to the activity of Ga(NO3)3.

SMILES	IC50 [1]	IC50 [2]	IC50 [3]	IC50 [4]	effect on the growth of any model microorganism (any model microorganism)
O=C(O)c1cccc(C(=O)O)n1 [H2Dpic, dipicolinic acid]	> 200 µM	> 200 µM	> 200 µM	> 200 µM	–
O=C(O)c1ccccn1 [HPic, picolinic acid]	> 200 µM	> 200 µM	> 200 µM	> 200 µM	did not affect the growth
